# Experimental data: a melting point compilation (Tetko et al.; mined from patent text by program, amines drawn as free bases though some values may be those of a salt)
row,SMILES,melting point
1,CN(C)CCOc1ccc(/C=C/C(=O)N2CC(CCl)c3c2cc(OCc2ccccc2)c2ncccc32)cc1 (stereo not given),172 to 175 °C
2,COc1c(C(F)(F)F)cc([N+](=O)[O-])c(NN(C)C)c1[N+](=O)[O-],109 to 110 °C
3,CC(=O)N1CCC(C(=O)Nc2ccccc2Oc2ccc(Cl)cc2)CC1,195 to 196 °C
4,Oc1ccc(Nc2nc(NCc3ccco3)nc(Oc3ccc(O)cc3)n2)cc1,80 to 83 °C
5,CC(C)(C)c1ccc2c(Cl)c3ccccc3c(C=O)c2c1,126 to 129 °C
6,C=CCN(C)CCNc1ccnc2cc(Cl)ccc12,91 to 93 °C
7,Fc1ccc(C(OP2OCCO2)(c2ccc(F)cc2)c2ccccc2F)cc1,163 to 164 °C
8,Cc1ccccc1N1CCN(CCn2c(=N)sc3cc(OC(F)(F)F)ccc32)CC1,135 °C
9,C=CS(=O)(=O)CCN1CCC(N2N=C(c3ccc(OC)c(OC)c3)[C@H]3CC=CC[C@H]3C2=O)CC1,165 to 166 °C
10,CN(C)c1nc2cc(NC(=O)c3c(C(=O)O)cnn3C)ccn2n1,> 250 °C
11,COc1ccc2ccc(N3C(=O)c4ccccc4C3CC(=O)CCc3ccccc3)nc2n1 (stereo not given),180 °C
12,Cc1cc(-c2ccccc2)c2c(n1)C(C(N)=S)CCC2 (stereo not given),174 to 175 °C
13,CC(=Cc1ccccc1)n1c(=O)[nH]c2ccc(F)cc21,190 °C
14,O=c1[nH]c(=O)n(C2CC(F)C(CO)O2)cc1C#CI (stereo not given),140 °C
15,COc1cc(N2CCCN(C3CCN(C)CC3)CC2)ccc1Nc1ncc2ccc(-c3ccccc3OC)n2n1,71 to 80 °C
16,COc1c(Cl)ccc(C(=O)O)c1SC,98 to 99 °C
17,CCc1nc2c(N)nc3cc(OCCNC(=O)NC(C)C)ccc3c2n1CC1CCOCC1,223 to 225 °C
18,NCCCCc1ccccc1C1=NNC(=O)CC1,78 to 80 °C
19,CCN(CC)N(C(C)=O)c1nc2cc3nc(N(C(C)=O)N4CCCCC4)sc3cc2s1,280 to 282 °C
20,O=C(O)C(C1CC(=O)N(C(=O)OCC(Cl)(Cl)Cl)O1)N1C(=O)c2ccccc2C1=O (stereo not given),208 to 210 °C
21,Cc1sc(N2CCOCC2)nc1CCl,110 to 111 °C
22,CCn1nnnc1Cc1ccc(NC(=O)/C=C/c2cnn(C)c2-c2ccc(F)cc2)cc1,206 to 207 °C
23,COC(=O)c1ccc(C(=O)NNC(=O)C=Cc2ccccc2)cc1,207 °C
24,CCOC(=O)c1sc(SC)c2c1CCc1nc(-c3ccccc3)[nH]c1-2,218 to 219 °C
25,CC(C)(C)OC(=O)N1CCn2c(Br)c(-c3cccc(F)c3)c(C(=O)n3ccnc3)c2C1,168 to 169 °C

row,SMILES,melting point
1,NC(=O)NCNC(N)=O,> 270 °C
2,CC(=O)ON1C(C)(C)CC(C(N)=O)C1(C)C (stereo not given),150 to 151 °C
3,Clc1nc2c(-c3ccccc3)cccc2o1,85.8 °C
4,O=P(O)(O)CCCCCCCCCCCC(F)(F)C(F)(F)C(F)(F)C(F)(F)C(F)(F)C(F)(F)C(F)(F)C(F)(F)F,115 to 117 °C
5,Cn1ncc2c1-c1c(SC(C)(C)C)sc(C(N)=O)c1CC2,146 to 147 °C
6,Cc1ccc(I(Cl)Cl)c([N+](=O)[O-])c1,50 to 52 °C
7,CCn1nc(C(C)C)c2c1C(=O)NCC(c1ccccc1)=N2,160 °C
8,CCCc1c(CSc2nnc(NC(=O)CCC(=O)OCC)s2)ccc(C(C)=O)c1O,166 °C
9,CCCCCCCCCCCCOc1ccc(NC(=O)C(=O)OCC)cc1,70.5 to 72 °C
10,COc1ccc2c(c1OC)CC(c1ccccc1)C=C2C#N (stereo not given),109 to 110 °C
11,NC(=O)Cc1c(CCN(Cc2ccccc2)Cc2ccccc2)[nH]c2ccccc12,135 to 136 °C
12,O=C(NNc1ccc(NC(=S)Nc2ccc(NNC(=O)c3ccccc3)cc2)cc1)c1ccccc1,185 to 187 °C
13,O=C(O)Cc1cc(C(=O)c2ccc(Br)cc2)sc1-c1ccccc1,147 to 150 °C
14,CCOc1nsnc1S(C)(=O)=O,94 to 95 °C
15,Nc1ccc(NC(=O)c2ccc(CNC(=O)OCc3cccnc3)cc2)cc1,204 to 205 °C
16,N#Cc1c(OCCO)cccc1[N+](=O)[O-],140 to 142 °C
17,O=C(Nc1ccc2ccccc2n1)c1ccc(COc2ccc3c(c2)CCC(CCN2CCCCC2)C3)cc1 (stereo not given),135 to 138 °C
18,CC(=O)Oc1ccc(C2COc3cc(OC(C)=O)cc(C)c3C2=O)cc1 (stereo not given),143 to 145 °C
19,Cc1c(Cl)cc(C(=O)CC(Cl)C(=O)O)cc1Cl (stereo not given),129 to 132 °C
20,O=C1CCC(c2ccc3c(c2)C2(CC2)C(=O)N3)=NN1,256 to 257 °C
21,CC#CCOc1ccc(S(=O)(=O)C(CCCCCC#N)C(=O)NO)cc1 (stereo not given),120 °C
22,O=C(NCC1CCN(C(c2ccccc2)c2ccccc2)CC1)c1cc(F)ccc1[N+](=O)[O-],164 to 166 °C
23,COc1ccc(C2CCC(=O)CC2NC(=O)c2ccc(OCC3CC3)c(OCC3CC3)c2)cc1OC (stereo not given),150 to 152 °C
24,CC(CC(=O)OC(C)C)N=c1sc2ccccc2s1 (stereo not given),44 °C
25,CCNC(=O)n1nc(Oc2ncc(Cl)cc2Cl)cc1C,74 to 76 °C
